In ChEMBL document CHEMBL1134838, “Structure-activity relationships at monoamine transporters and muscarinic receptors for N-substituted-3alpha-(3'-chloro-, 4'-chloro-, and 4',4''-dichloro-substituted-diphenyl)methoxytropanes” (J Med Chem, 2001):

Key:
[1] = target: Sodium-dependent dopamine transporter (Rattus norvegicus, UniProt P23977); assay: biochemical; type: tissue-based, Brain
Description: Binding affinity for dopamine transporter was determined in vitro in rat brain using [3H]WIN-35428 s radioligand

[2] = target: Sodium-dependent serotonin transporter (Rattus norvegicus, UniProt P31652); assay: Binding affinity for serotonin transporter was determined in vitro in rat brain using [3H]citalopram as radioligand.; type: tissue-based
[3] = target: T1, Muscarinic acetylcholine receptor M1 (Rattus norvegicus, UniProt P08482); assay: Binding affinity for muscarinic m1 receptor was determined in vitro in rat brain using [3H]pirenzepine as radioligand.; type: tissue-based
T1 sequence (P08482 whole entry): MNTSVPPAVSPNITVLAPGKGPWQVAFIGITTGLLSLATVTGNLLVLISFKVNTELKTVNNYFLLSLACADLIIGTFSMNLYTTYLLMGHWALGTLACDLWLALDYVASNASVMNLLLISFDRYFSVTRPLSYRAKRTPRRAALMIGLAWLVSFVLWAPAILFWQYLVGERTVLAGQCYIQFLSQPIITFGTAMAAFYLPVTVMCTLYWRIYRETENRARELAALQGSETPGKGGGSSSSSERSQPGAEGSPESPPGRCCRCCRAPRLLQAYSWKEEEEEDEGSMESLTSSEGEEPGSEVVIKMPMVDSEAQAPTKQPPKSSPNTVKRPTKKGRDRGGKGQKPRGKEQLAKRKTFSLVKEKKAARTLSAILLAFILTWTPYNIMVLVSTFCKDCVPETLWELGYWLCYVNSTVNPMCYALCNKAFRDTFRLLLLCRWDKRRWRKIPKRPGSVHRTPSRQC

[4] = target: Norepinephrine transporter (Rattus norvegicus, UniProt Q9WTR4); assay: Binding affinity for norepinephrine transporter in rat brain using [3H]-nisoxatine as radioligand; type: tissue-based
Sequence of Norepinephrine transporter (Q9WTR4 whole entry): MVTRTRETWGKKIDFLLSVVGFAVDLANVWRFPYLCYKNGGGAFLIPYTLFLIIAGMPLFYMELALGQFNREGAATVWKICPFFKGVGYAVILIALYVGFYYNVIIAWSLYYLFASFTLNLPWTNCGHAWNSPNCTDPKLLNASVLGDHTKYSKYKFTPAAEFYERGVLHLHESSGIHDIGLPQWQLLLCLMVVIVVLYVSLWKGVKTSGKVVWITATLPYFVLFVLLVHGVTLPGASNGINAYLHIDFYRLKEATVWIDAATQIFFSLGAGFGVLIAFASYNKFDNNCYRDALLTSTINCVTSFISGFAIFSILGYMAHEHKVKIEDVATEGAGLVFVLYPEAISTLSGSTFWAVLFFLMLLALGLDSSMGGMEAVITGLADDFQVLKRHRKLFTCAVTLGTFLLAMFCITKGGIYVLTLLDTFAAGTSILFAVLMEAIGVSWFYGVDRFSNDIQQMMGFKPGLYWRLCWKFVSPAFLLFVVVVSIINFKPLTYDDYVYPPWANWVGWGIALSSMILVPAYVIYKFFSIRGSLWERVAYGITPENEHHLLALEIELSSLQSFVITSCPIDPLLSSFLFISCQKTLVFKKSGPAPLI

Sequence of Sodium-dependent serotonin transporter (P31652 whole entry): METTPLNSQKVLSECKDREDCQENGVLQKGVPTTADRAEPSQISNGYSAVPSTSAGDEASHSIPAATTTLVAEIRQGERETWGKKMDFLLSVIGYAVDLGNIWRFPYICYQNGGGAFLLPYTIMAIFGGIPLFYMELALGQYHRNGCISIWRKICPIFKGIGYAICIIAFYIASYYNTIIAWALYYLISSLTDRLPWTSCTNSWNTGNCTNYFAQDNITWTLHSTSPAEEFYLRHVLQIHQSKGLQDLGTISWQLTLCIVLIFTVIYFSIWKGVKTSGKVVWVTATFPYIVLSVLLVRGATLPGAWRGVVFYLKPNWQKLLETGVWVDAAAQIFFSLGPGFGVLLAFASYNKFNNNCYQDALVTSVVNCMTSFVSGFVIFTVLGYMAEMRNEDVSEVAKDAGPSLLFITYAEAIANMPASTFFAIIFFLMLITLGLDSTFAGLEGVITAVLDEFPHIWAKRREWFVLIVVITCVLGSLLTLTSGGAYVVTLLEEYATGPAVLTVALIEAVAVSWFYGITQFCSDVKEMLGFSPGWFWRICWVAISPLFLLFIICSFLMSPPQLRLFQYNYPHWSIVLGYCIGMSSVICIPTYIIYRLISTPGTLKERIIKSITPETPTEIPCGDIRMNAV
Sequence of Sodium-dependent dopamine transporter (P23977 whole entry): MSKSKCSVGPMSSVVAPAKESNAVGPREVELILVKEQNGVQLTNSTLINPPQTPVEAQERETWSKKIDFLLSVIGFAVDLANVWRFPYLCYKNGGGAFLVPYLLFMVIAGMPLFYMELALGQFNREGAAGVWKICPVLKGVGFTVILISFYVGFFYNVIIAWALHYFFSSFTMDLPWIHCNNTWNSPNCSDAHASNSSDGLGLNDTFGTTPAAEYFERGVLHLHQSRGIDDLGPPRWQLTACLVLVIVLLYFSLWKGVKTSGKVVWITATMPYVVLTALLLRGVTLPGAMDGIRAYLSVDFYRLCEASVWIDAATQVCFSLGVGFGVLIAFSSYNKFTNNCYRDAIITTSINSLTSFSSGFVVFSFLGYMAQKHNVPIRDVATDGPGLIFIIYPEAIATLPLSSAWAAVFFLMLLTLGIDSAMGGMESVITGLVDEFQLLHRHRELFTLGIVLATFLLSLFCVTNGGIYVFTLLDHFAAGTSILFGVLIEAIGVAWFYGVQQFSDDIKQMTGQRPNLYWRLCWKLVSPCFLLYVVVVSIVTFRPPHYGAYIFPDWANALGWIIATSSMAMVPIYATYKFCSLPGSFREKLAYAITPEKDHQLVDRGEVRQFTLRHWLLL

Row | SMILES | Ki [1] [nM] | Ki [2] [nM] | Ki [3] [nM] | Ki [4] [nM]
1 | CCCCc1cccc(N2[C@@H]3CC[C@H]2C[C@H](OC(c2ccc(Cl)cc2)c2ccc(Cl)cc2)C3)c1 | 85 | 659 | 3730 | 4950
2 | CCCCc1cccc(N2[C@@H]3CC[C@H]2C[C@H](OC(c2ccccc2)c2ccc(Cl)cc2)C3)c1 (some centres undefined) | 53.3 | 737 | 1430 | 2320
3 | CCCc1cccc(N2[C@H]3CC[C@]2(C)C[C@@H](OC(c2ccccc2)c2ccc(Cl)cc2)C3)c1 (some centres undefined) | 148 | 302 | 397 | 10300
4 | CCCc1cccc(N2[C@@H]3CC[C@H]2C[C@H](OC(c2ccccc2)c2cccc(Cl)c2)C3)c1 (some centres undefined) | 101 | 429 | 337 | 1810
5 | CCCc1cccc(N2[C@@H]3CC[C@H]2C[C@H](OC(c2ccc(Cl)cc2)c2ccc(Cl)cc2)C3)c1 | 158 | 585 | 3050 | 19800
6 | CN1[C@@H]2CC[C@H]1C[C@@H](OC(c1ccccc1)c1cccc(Cl)c1)C2 (some centres undefined) | – | 258 | – | 451
7 | CN1C2CCC1CC(OC(c1ccccc1)c1ccc(Cl)cc1)C2 (centres undefined) | – | 5120 | 7.9 | 1470
8 | Clc1ccc(C(OC2CC3CCC(C2)N3)c2ccccc2)cc1 (centres undefined) | 36.8 | 1320 | 95.5 | 1010
9 | Clc1ccc(C(OC2CC3CCC(C2)N3)c2ccc(Cl)cc2)cc1 (centres undefined) | – | 727 | 649 | 6040
10 | Clc1ccc(C(OC2CC3CCC(C2)N3Cc2ccccc2)c2ccc(Cl)cc2)cc1 (centres undefined) | 399 | 3610 | 8630 | 7660
11 | CCCCc1cccc(N2C3CCC2CC(OC(c2ccccc2)c2cccc(Cl)c2)C3)c1 (centres undefined) | 153 | 591 | 564 | 1470
12 | Clc1cccc(C(OC2CC3CCC(C2)N3Cc2ccccc2)c2ccccc2)c1 (centres undefined) | 191 | 1680 | 674 | 6460
13 | C=CCN1C2CCC1CC(OC(c1ccccc1)c1cccc(Cl)c1)C2 (centres undefined) | 33.6 | 1200 | 69.7 | 1230
14 | Clc1ccc(C(OC2CC3CCC(C2)N3Cc2ccccc2)c2ccccc2)cc1 (centres undefined) | 365 | 3530 | 2560 | 13000
15 | C=CCN1C2CCC1CC(OC(c1ccccc1)c1ccc(Cl)cc1)C2 (centres undefined) | 84.2 | 2330 | 127 | 4720
16 | C=CCN1C2CCC1CC(OC(c1ccc(Cl)cc1)c1ccc(Cl)cc1)C2 (centres undefined) | 54.6 | 568 | 127 | 4140
17 | Clc1cccc(C(OC2CC3CCC(C2)N3)c2ccccc2)c1 (centres undefined) | 26.2 | 2100 | 91.7 | 508
